Experimental data reported in patent US10245261B2, “Substituted indol-5-ol derivatives and their therapeutic applications” (NantBioScience, Inc., priority 2013, dated 2019).

What was measured:
Assay in all cases: KinaseProfiler kinase assay
Assay type in all cases: biochemical
TSSK2(h) = TSSK2(h) (Homo sapiens, UniProt Q96PF2)
Summary of the method: (§1)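 Kinase activity is followed by incorporation of 33P from [γ-33P]ATP in 8 mM MOPS pH 7.0 with 10 mM Mg acetate and 0.2 mM EDTA over 40 min at room temperature. Inhibition is scaled between no-kinase and phosphopeptide control wells.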

Met(Y1248D)(h) = Met(Y1248D)(h) (Homo sapiens, UniProt P08581, Y1230D)
Summary of the method: as §1

BrSK2(h) = BrSK2(h) (Homo sapiens, UniProt Q8IWQ3)
Summary of the method: as §1

MuSK(h) = MuSK(h) (Homo sapiens, UniProt O15146)
Summary of the method: as §1

ASK1(h) = ASK1(h) (Homo sapiens, UniProt Q99683)
Chain of ASK1(h) (Q99683 whole entry): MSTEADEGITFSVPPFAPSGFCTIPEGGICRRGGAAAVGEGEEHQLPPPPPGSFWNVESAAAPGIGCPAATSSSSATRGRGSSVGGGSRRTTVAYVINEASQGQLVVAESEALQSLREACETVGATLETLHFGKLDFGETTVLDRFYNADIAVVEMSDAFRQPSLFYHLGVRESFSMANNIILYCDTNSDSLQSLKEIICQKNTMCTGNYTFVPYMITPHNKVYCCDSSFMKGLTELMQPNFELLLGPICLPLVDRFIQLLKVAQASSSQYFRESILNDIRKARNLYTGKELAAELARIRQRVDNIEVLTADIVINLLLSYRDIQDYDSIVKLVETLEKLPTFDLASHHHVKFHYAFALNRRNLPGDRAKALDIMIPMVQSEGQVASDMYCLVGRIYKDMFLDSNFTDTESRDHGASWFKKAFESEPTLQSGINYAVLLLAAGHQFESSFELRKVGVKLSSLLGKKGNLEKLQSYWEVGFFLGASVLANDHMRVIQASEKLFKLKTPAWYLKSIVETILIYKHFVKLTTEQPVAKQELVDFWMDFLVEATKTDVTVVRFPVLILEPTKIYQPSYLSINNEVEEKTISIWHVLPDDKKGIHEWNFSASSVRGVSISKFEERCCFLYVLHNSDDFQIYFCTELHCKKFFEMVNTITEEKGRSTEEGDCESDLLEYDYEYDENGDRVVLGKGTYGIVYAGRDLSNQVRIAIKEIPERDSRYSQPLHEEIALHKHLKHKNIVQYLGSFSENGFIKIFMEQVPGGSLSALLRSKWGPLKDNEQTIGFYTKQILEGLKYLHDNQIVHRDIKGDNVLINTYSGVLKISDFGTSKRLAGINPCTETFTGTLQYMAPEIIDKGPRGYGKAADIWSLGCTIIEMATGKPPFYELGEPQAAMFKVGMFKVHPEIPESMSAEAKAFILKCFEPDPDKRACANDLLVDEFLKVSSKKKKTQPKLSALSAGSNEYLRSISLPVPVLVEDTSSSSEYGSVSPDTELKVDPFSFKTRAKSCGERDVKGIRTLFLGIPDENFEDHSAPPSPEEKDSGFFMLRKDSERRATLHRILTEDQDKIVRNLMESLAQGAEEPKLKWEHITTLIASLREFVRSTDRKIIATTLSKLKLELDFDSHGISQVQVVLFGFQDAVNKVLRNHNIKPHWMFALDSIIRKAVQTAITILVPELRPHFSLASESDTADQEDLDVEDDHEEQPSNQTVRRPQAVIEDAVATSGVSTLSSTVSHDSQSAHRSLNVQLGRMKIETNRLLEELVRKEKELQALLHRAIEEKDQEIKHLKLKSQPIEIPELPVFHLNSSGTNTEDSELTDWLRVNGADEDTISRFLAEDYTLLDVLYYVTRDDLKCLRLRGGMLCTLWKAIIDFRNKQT
Summary of the method: as §1

PKCζ(h) = PKCζ(h) (Homo sapiens, UniProt Q05513)
Summary of the method: as §1

Rsk3(h) = Rsk3(h) (Homo sapiens, UniProt Q15349)
Summary of the method: as §1

PIP4K2α(h) = PIP4K2α(h) (Homo sapiens, UniProt P48426)
Chain of PIP4K2α(h) (P48426 whole entry): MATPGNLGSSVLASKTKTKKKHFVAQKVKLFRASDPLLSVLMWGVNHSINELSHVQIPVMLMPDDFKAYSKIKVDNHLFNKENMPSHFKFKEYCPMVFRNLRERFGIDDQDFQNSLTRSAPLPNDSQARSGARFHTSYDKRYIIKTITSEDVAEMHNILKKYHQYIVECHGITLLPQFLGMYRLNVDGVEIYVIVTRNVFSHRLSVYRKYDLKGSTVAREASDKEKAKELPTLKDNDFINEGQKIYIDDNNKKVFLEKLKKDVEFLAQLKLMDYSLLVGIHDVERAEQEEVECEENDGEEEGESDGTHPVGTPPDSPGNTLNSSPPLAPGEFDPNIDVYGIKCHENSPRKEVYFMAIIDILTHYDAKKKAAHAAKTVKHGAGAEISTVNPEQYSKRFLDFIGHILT
Summary of the method: as §1

Haspin(h) = Haspin(h) (Homo sapiens, UniProt Q8TF76)
Summary of the method: as §1

MAPK2(m) = MAPK2(m) (Mus musculus, UniProt P63085)
Summary of the method: as §1

PKD2(h) = PKD2(h) (Homo sapiens, UniProt Q9BZL6)
Summary of the method: as §1

SGK3(h) = SGK3(h) (Homo sapiens, UniProt Q96BR1)
Summary of the method: as §1

CaMKIIβ(h) = CaMKIIβ(h) (Homo sapiens, UniProt Q13554)
Summary of the method: as §1

[1] = target: PI3 Kinase (p110α/p85α)(h) (Homo sapiens, UniProt P42336)
Summary of the method: as §1

MINK(h) = MINK(h) (Homo sapiens, UniProt Q8N4C8)
Summary of the method: as §1

CK1γ3(h) = CK1γ3(h) (Homo sapiens, UniProt Q9Y6M4)
Summary of the method: as §1

NLK(h) = NLK(h) (Homo sapiens, UniProt Q9UBE8)
Chain of NLK(h) (Q9UBE8 whole entry): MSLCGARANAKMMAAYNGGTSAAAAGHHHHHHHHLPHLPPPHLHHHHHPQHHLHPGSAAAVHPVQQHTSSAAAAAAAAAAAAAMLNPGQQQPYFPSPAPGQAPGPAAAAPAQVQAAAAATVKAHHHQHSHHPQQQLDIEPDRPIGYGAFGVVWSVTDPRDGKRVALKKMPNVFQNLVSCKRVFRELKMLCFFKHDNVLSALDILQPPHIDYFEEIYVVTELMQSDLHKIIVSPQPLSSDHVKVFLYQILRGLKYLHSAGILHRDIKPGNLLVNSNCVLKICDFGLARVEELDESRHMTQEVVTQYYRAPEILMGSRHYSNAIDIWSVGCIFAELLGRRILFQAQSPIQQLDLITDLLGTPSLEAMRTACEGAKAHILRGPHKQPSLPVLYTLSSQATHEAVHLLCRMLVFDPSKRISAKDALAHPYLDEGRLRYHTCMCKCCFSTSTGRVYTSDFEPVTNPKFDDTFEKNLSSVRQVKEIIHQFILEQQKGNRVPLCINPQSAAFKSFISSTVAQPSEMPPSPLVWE
Summary of the method: as §1

PKA(h) = PKA(h) (Homo sapiens, UniProt P17612)
Summary of the method: as §1

EphB1(h) = EphB1(h) (Homo sapiens, UniProt P54762)
Summary of the method: as §1

MLCK(h) = MLCK(h) (Homo sapiens, UniProt Q9H1R3)
Summary of the method: as §1

NEK7(h) = NEK7(h) (Homo sapiens, UniProt Q8TDX7)
Chain of NEK7(h) (Q8TDX7 whole entry): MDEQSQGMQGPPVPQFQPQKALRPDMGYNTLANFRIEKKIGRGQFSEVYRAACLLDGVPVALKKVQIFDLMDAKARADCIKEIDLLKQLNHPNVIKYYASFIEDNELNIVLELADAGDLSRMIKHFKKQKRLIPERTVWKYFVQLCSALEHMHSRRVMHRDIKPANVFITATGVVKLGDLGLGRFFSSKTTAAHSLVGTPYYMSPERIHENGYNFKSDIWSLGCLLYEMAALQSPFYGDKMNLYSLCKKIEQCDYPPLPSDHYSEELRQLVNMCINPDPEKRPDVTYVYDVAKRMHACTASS
Summary of the method: as §1

PrKX(h) = PrKX(h) (Homo sapiens, UniProt P51817)
Summary of the method: as §1

Fms(Y969C)(h) = Fms(Y969C)(h) (Homo sapiens, UniProt P07333, Y969C)
Summary of the method: as §1

IRR(h) = IRR(h) (Homo sapiens, UniProt P14616)
Chain of IRR(h) (P14616 27-1297): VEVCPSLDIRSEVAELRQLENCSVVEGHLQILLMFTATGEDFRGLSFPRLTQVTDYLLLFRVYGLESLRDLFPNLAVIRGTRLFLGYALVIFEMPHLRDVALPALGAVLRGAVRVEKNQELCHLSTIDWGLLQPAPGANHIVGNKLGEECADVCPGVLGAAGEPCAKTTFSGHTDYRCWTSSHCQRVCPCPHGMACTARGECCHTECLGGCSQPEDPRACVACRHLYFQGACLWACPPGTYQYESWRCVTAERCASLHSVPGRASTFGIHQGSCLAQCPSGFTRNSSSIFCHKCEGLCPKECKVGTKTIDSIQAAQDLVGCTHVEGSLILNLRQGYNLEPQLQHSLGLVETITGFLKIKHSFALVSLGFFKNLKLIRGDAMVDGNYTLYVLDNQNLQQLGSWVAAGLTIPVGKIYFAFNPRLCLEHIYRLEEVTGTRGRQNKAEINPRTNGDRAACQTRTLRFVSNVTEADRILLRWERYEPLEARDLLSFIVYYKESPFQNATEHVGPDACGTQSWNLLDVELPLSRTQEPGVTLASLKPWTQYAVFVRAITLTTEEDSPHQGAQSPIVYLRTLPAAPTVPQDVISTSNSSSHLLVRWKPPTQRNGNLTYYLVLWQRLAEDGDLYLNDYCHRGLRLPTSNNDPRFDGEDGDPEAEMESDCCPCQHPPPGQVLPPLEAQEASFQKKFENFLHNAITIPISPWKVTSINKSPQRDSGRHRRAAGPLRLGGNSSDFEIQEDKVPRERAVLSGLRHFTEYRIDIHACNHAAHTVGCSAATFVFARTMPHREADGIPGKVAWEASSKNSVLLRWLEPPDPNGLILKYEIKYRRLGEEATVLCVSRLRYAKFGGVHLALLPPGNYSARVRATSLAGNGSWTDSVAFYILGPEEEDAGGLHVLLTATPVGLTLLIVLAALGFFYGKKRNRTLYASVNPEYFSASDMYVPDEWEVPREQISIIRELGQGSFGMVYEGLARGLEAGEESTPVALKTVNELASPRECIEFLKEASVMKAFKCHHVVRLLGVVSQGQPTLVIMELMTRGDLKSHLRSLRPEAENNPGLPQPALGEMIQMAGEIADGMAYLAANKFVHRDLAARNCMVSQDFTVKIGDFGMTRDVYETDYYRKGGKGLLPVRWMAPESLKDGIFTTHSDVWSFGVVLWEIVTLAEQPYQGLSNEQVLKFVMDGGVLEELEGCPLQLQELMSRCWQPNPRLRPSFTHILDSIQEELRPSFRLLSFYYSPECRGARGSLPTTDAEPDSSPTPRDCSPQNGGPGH
Summary of the method: as §1

Rsk4(h) = Rsk4(h) (Homo sapiens, UniProt Q9UK32)
Summary of the method: as §1

Yes(h) = Yes(h) (Homo sapiens, UniProt P07947)
Summary of the method: as §1

CDK5/p35(h) = CDK5/p35(h) (Homo sapiens, UniProt Q00535)
Summary of the method: as §1

Lyn(m) = Lyn(m) (Mus musculus, UniProt P25911)
Summary of the method: as §1

RIPK2(h) = RIPK2(h) (Homo sapiens, UniProt O43353)
Summary of the method: as §1

PAK4(h) = PAK4(h) (Homo sapiens, UniProt O96013)
Summary of the method: as §1

EGFR(L861Q)(h) = EGFR(L861Q)(h) (Homo sapiens, UniProt P00533, L861Q)
Summary of the method: as §1

FGFR2(N549H)(h) = FGFR2(N549H)(h) (Homo sapiens, UniProt P21802, N549H)
Chain of FGFR2(N549H)(h) (P21802 22-821 N549H): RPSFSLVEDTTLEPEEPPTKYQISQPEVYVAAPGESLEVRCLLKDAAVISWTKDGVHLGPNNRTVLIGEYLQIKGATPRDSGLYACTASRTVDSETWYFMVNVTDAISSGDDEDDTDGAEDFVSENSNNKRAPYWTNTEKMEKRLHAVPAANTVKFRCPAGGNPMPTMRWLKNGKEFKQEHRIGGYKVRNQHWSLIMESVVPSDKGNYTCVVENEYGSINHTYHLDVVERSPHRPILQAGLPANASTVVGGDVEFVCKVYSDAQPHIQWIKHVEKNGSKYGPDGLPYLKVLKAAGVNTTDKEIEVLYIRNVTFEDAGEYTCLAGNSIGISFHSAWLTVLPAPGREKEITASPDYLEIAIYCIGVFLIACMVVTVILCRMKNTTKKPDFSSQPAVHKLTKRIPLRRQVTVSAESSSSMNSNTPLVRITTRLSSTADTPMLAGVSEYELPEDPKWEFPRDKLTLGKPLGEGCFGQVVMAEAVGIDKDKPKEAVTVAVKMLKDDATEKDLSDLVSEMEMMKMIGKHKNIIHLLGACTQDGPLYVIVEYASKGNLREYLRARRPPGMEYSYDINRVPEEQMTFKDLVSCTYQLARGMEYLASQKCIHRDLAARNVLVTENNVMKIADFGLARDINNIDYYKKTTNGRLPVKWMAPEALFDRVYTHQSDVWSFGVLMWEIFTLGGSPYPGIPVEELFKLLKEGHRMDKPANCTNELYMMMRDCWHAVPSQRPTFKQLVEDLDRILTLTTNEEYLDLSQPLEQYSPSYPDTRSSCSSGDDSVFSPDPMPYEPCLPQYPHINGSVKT
Summary of the method: as §1

Chain of TSSK2(h) (Q96PF2 whole entry): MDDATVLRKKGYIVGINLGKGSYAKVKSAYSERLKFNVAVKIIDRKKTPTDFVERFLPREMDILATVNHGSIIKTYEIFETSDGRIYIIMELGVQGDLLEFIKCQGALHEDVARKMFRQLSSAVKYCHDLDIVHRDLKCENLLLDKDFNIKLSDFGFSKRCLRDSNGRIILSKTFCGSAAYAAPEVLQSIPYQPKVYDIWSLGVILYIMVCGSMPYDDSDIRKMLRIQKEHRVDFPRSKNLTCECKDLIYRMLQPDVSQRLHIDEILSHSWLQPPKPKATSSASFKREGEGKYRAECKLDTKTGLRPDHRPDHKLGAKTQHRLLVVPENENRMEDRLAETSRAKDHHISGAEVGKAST

SMILES | inhibition at 0.1 µM (TSSK2(h)) [%] | inhibition at 0.1 µM (Met(Y1248D)(h)) [%] | inhibition at 0.1 µM (BrSK2(h)) [%] | inhibition at 0.1 µM (MuSK(h)) [%] | inhibition at 0.1 µM (ASK1(h)) [%] | inhibition at 0.1 µM (PKCζ(h)) [%] | inhibition at 0.1 µM (Rsk3(h)) [%] | inhibition at 0.1 µM (PIP4K2α(h)) [%] | inhibition at 0.1 µM (Haspin(h)) [%] | inhibition at 0.1 µM (MAPK2(m)) [%] | inhibition at 0.1 µM (PKD2(h)) [%] | inhibition at 0.1 µM (SGK3(h)) [%] | inhibition at 0.1 µM (CaMKIIβ(h)) [%] | inhibition at 0.1 µM [1] [%] | inhibition at 0.1 µM (MINK(h)) [%] | inhibition at 0.1 µM (CK1γ3(h)) [%] | inhibition at 0.1 µM (NLK(h)) [%] | inhibition at 0.1 µM (PKA(h)) [%] | inhibition at 0.1 µM (EphB1(h)) [%] | inhibition at 0.1 µM (MLCK(h)) [%] | other results
Cc1cc2c(F)c(Oc3nc(Nc4cc(C5CC5)[nH]n4)cc(N4CCN(C)CC4)n3)ccc2[nH]1 [Compound 10] | 5 | 80 | 60 | 30 | -14 | -7 | 63 | 1 | 0 | -16 | -5 | -5 | -5 | -1 | 7 | -12 | -12 | 2 | 101 | 0 | inhibition at 0.1 µM (NEK7(h)): 8%; inhibition at 0.1 µM (PrKX(h)): 13%; inhibition at 0.1 µM (Fms(Y969C)(h)): 67%; inhibition at 0.1 µM (IRR(h)): 91%; inhibition at 0.1 µM (Rsk4(h)): 36%; inhibition at 0.1 µM (Yes(h)): 99%; inhibition at 0.1 µM (CDK5/p35(h)): 20%; inhibition at 0.1 µM (Lyn(m)): 98%; inhibition at 0.1 µM (RIPK2(h)): 1%; inhibition at 0.1 µM (PAK4(h)): 29%; inhibition at 0.1 µM (EGFR(L861Q)(h)): 2%; inhibition at 0.1 µM (FGFR2(N549H)(h)): 100%
Cc1cc2c(F)c(Oc3nc(Nc4cc(C5CC5)[nH]n4)cc(N4CCNCC4)n3)ccc2[nH]1 [Compound 11, N-(5-cyclopropyl-1H-pyrazol-3-yl)-2-((4-fluoro-2-methyl-1H-indol-5-yl)oxy)-6-(piperazin-1-yl)pyrimidin-4-amine] | 2 | 76 | 48 | 20 | -17 | -14 | 63 | -4 | -11 | 10 | -1 | 4 | 8 | 5 | 31 | -9 | -8 | -12 | 100 | 0 | inhibition at 0.1 µM (NEK7(h)): -5%; inhibition at 0.1 µM (PrKX(h)): 35%; inhibition at 0.1 µM (Fms(Y969C)(h)): 73%; inhibition at 0.1 µM (IRR(h)): 95%; inhibition at 0.1 µM (Rsk4(h)): 35%; inhibition at 0.1 µM (Yes(h)): 101%; inhibition at 0.1 µM (CDK5/p35(h)): 78%; inhibition at 0.1 µM (Lyn(m)): 101%; inhibition at 0.1 µM (RIPK2(h)): 13%; inhibition at 0.1 µM (PAK4(h)): 23%; inhibition at 0.1 µM (EGFR(L861Q)(h)): 34%; inhibition at 0.1 µM (FGFR2(N549H)(h)): 100%
